# Values quoted from earlier work, collected in patent publication US8329229B2, “Steam distillation of catmint plants” (E I du Pont de Nemours and Company, priority 2006, dated 2012).
# System: insect
# Conditions: see U.S. Ser. No. 05/112,166
structure (smiles),measurement,value
CC1COC(=O)C2C(C)CCC12 (stereo not shown) [dihydronepetalactone],insect repellency,exhibits insect repellency
